In publication PMC4894406, “Results of an abbreviated phase-II study with the Akt Inhibitor MK-2206 in Patients with Advanced Biliary Cancer” (Scientific Reports, 2015):
“And” between values parts separate entries of the source, which are not always exact repeats. Equal values may be shown once. Read-outs that look alike come from different tables or passages of the source.

How the values were obtained:
human Akt (Akt-3) = conditions: cited from earlier work
CYP3A = test system: CYP3A; design: method as in PMID 24387695; conditions: at 0.1 to 10 μM; cited from earlier work
breast cancer = test system: breast cancer; design: method as in PMID 24252402; conditions: 48-hr plasma concentration, patients with breast cancer; cited from earlier work
CYP3A4 = test system: CYP3A4; design: method as in PMID 24387695; conditions: read-out: IC50 CYP3A4 inhibition; cited from earlier work
[1] = Plasma pharmacokinetics in biliary cancer patients (LC-MS/MS, non-compartmental); format: in vivo, human; conditions: for AUC(0-t): read-out: AUC0–96; for Vd/F: read-out: Vz/F; for k el: read-out: λz (converted)
Procedure: Plasma samples were collected from all patients at Week 1 of Cycle 1 immediately prior to dose administration, and at 30 min, 1, 2, 3, 4, 6, 8, 24, 48, and 96 hours after dose administration. The 24, 48 and 96-hour samples were collected on the mornings of days 2, 3 and 5 within 4 hours of the target time (e.g. 24 ± 4, 48 ± 4, and 96 ± 4 hours). Plasma samples were also collected immediately prior to the oral intake of MK-2206 tablet(s) on days 8, 15 and 29 (i.e. Cycle 2, Day 1) so that trough pre-dose levels of MK-2206 could be determined in the following studies. The plasma levels of MK-2206 were evaluated using quantitative liquid chromatography/tandem mass spectrometry (LC-MS/MS) at Merck & Co. Non-compartmental PK parameters were determined for MK-2206 using Phoenix WinNonlin (v6.3, Pharsight, Mountain View, CA).

[2] = test system: advanced, refractory biliary cancer; experiment: Phase II study: efficacy (RECIST 1.1, PFS, OS); format: in vivo, human; conditions: for Overall Survival / Progression-Free Survival: 200 mg weekly (text b31 gives months)
Description: This was a National Cancer Institute (NCI)/Cancer Therapy Evaluation Program (CTEP)-sponsored phase II, open label, multicenter trial led by The Ohio State University with the participation of Georgetown University and Case Western University (ClinicalTrials.gov NCT01425879, date of registration 08/27/2011). MK-2206 was provided by NCI/CTEP. The primary objective of this study was to determine the overall response rate (complete response and partial response) as defined by RECIST[17]. Tumor tissue samples were required from all patients prior to enrollment. Secondary objectives included overall survival (OS), progression-free survival (PFS), and the presence of any mutations in the pI3k/AKT pathway and the evaluation of toxicities related to MK-2206. The starting dose and schedule for MK-2206 was 200 mg given weekly in 28-day cycles without interruption. Treatment was administered on an outpatient basis. Two levels of dose reductions were planned (135 mg weekly and 90 mg weekly) with patients taken off the study for additional dose reductions. Radiologic assessment was done by computed tomography every 8 weeks and responses were measured according to RECIST 1.1[17]. Toxicities were defined by the NCI-Common Terminology Criteria of Adverse Events version 4.0.

CYP2C9 = test system: CYP2C9; design: method as in PMID 24387695; conditions: read-out: IC50 CYP2C9 inhibition; cited from earlier work
human Akt (Akt-1) = conditions: cited from earlier work
[3] = OSU Trial, 7 subjects (subject 1004 excluded), BSA-adjusted
[4] = OSU Trial, 7 subjects (subject 1004 excluded), first dose 200 mg
[5] = human, plasma, po, 200 mg, subject 1001, first dose 200 mg oral
[6] = human, plasma, po, 200 mg, subject 1002, first dose 200 mg oral
[7] = human, plasma, po, 200 mg, subject 1003, first dose 200 mg oral
[8] = human, plasma, po, 200 mg, subject 1004, first dose 200 mg oral
[9] = human, plasma, po, 200 mg, subject 1005, first dose 200 mg oral
[10] = human, plasma, po, 200 mg, subject 1007, first dose 200 mg oral
[11] = human, plasma, po, 200 mg, subject 2006, first dose 200 mg oral
[12] = human, plasma, po, 200 mg, subject 2008, first dose 200 mg oral

NC1(c2ccc(-c3nc4ccn5c(=O)[nH]nc5c4cc3-c3ccccc3)cc2)CCC1 [MK-2206]
IC50 (human Akt (Akt-3)): 65 nM
effect on CYP3A mRNA and activity (CYP3A): insignificant effect
CL/F/m^2 (BSA-adjusted CL/F) [1, 3]: 16.5 +/− 7.2 L/hr/m^2 and 16.5±7.2 L/hr/m^2
Vz/F/m^2 [1, 3]: 1521±931 L/m^2
Cmax (average) [1, 4]: 114 ng/mL
Tmax (average) [1, 4]: 6.0 ± 1.6 h
concentration at 48 h ([1]; human, plasma, oral, 200 mg, 6 of 8 patients, read-out: 48-hr plasma concentration): > 22.7 ng/mL and > 56.8 nM
half-life ([1]; human, plasma, oral, 200 mg, OSU Trial, 7 subjects (subject 1004 excluded), first dose 200 mg, read-out: Half life (average) (converted)): 63.5 ± 21.2 h
concentration at 8 day ([1]; human, plasma, oral, 200 mg, day 8, 200 mg weekly, read-out: trough pre-dose average plasma concentration): 14.7 ng/mL
concentration at 15 day ([1]; human, plasma, oral, 200 mg, day 15, 200 mg weekly, read-out: trough pre-dose average plasma concentration): 14.4 ng/mL
concentration at 48 h ([1]; human, plasma, oral, 200 mg, one of the other two patients, read-out: Plasma concentration measured at 48 hours): 18.5 ng/mL
concentration at 48 h ([1]; human, plasma, oral, 200 mg, subject 1004, read-out: Plasma concentration measured at 48 hours): 5.06 ng/mL
Tmax ([1]; human, plasma, po, 200 mg, eight patients, first dose 200 mg oral, read-out: Tmax, range): 4 to 8 h
half-life ([1]; human, plasma, po, 200 mg, eight patients, first dose 200 mg oral, read-out: median terminal elimination half-life (converted)): 58 h
Tmax ([1]; human, plasma, po, 200 mg, eight patients, first dose 200 mg oral, read-out: median time to peak observed plasma concentrations (Tmax)): 6 h
half-life ([1]; human, plasma, po, 200 mg, eight patients, first dose 200 mg oral, read-out: terminal elimination half-life, range): 34 to 88 h
Cmax [1, 5]: 106 ng/mL
AUC(0-t) [1, 5]: 3320 ng·h/mL
half-life ([1]; human, plasma, po, 200 mg, subject 1001, first dose 200 mg oral, read-out: Half-life (converted)): 53.3 h
Tmax ([1]; human, plasma, po, 200 mg, subject 1001, first dose 200 mg oral, read-out: Tmax): 4 h
Vd/F [1, 5]: 3270 L
k el [1, 5]: 3.61e-06 s⁻¹
Cmax [1, 6]: 111 ng/mL
AUC(0-t) [1, 6]: 6850 ng·h/mL
half-life ([1]; human, plasma, po, 200 mg, subject 1002, first dose 200 mg oral, read-out: Half-life (converted)): 80.4 h
Tmax ([1]; human, plasma, po, 200 mg, subject 1002, first dose 200 mg oral, read-out: Tmax): 6 h
Vd/F [1, 6]: 1870 L
k el [1, 6]: 2.5e-06 s⁻¹
Cmax [1, 7]: 176 ng/mL
AUC(0-t) [1, 7]: 8450 ng·h/mL
half-life ([1]; human, plasma, po, 200 mg, subject 1003, first dose 200 mg oral, read-out: Half-life (converted)): 33.8 h
Tmax ([1]; human, plasma, po, 200 mg, subject 1003, first dose 200 mg oral, read-out: Tmax): 6 h
Vd/F [1, 7]: 989 L
k el [1, 7]: 5.83e-06 s⁻¹
Cmax [1, 8]: 11.1 ng/mL
AUC(0-t) [1, 8]: 531 ng·h/mL
half-life ([1]; human, plasma, po, 200 mg, subject 1004, first dose 200 mg oral, read-out: Half-life (converted)): 62.5 h
Tmax ([1]; human, plasma, po, 200 mg, subject 1004, first dose 200 mg oral, read-out: Tmax): 8 h
Vd/F [1, 8]: 22200 L
k el [1, 8]: 3.06e-06 s⁻¹
Cmax [1, 9]: 108 ng/mL
AUC(0-t) [1, 9]: 6020 ng·h/mL
half-life ([1]; human, plasma, po, 200 mg, subject 1005, first dose 200 mg oral, read-out: Half-life (converted)): 86.9 h
Tmax ([1]; human, plasma, po, 200 mg, subject 1005, first dose 200 mg oral, read-out: Tmax): 8 h
Vd/F [1, 9]: 2210 L
k el [1, 9]: 2.22e-06 s⁻¹
Cmax [1, 10]: 90.1 ng/mL
AUC(0-t) [1, 10]: 3730 ng·h/mL
half-life ([1]; human, plasma, po, 200 mg, subject 1007, first dose 200 mg oral, read-out: Half-life (converted)): 50.2 h
Tmax ([1]; human, plasma, po, 200 mg, subject 1007, first dose 200 mg oral, read-out: Tmax): 6 h
Vd/F [1, 10]: 2880 L
k el [1, 10]: 3.89e-06 s⁻¹
Cmax [1, 11]: 144 ng/mL
AUC(0-t) [1, 11]: 5850 ng·h/mL
half-life ([1]; human, plasma, po, 200 mg, subject 2006, first dose 200 mg oral, read-out: Half-life (converted)): 52.4 h
Tmax ([1]; human, plasma, po, 200 mg, subject 2006, first dose 200 mg oral, read-out: Tmax): 4 h
Vd/F [1, 11]: 1870 L
k el [1, 11]: 3.61e-06 s⁻¹
Cmax [1, 12]: 44.7 ng/mL
AUC(0-t) [1, 12]: 2060 ng·h/mL
half-life ([1]; human, plasma, po, 200 mg, subject 2008, first dose 200 mg oral, read-out: Half-life (converted)): 87.5 h
Tmax ([1]; human, plasma, po, 200 mg, subject 2008, first dose 200 mg oral, read-out: Tmax): 8 h
Vd/F [1, 12]: 6560 L
k el [1, 12]: 2.22e-06 s⁻¹
CL/F ([1]; subject 1001, first dose 200 mg oral): 42.5 L/h
CL/F ([1]; subject 1002, first dose 200 mg oral): 16.1 L/h
CL/F ([1]; subject 1003, first dose 200 mg oral): 20.3 L/h
CL/F ([1]; subject 1004, first dose 200 mg oral): 245 L/h
Cmax and AUC of subject 1004 compared to others ([1]; subject 1004 relative to the other seven subjects): 6% to 25
CL/F ([1]; subject 1005, first dose 200 mg oral): 17.6 L/h
CL/F ([1]; subject 1007, first dose 200 mg oral): 39.8 L/h
CL/F ([1]; subject 2006, first dose 200 mg oral): 24.8 L/h
CL/F ([1]; subject 2008, first dose 200 mg oral): 52.0 L/h
accumulation with the current regimen ([1]; trough levels days 8 and 15, 200 mg weekly): no significant accumulation
Median PFS ([2]; 8 patients, 200 mg weekly): 1.7 months
best response for all patients ([2]; 8 patients, 200 mg weekly): stable disease
median OS ([2]; 8 patients, 200 mg weekly): 3.5 months
objective response ([2]; 8 patients, 200 mg weekly): No patients had an objective response
Best response ([2]; subject 1001, Intrahepatic, 200 mg weekly): Progressive disease
Overall Survival ([2]; subject 1001, Intrahepatic): 2.2
Progression-Free Survival ([2]; subject 1001, Intrahepatic): 1.8
Best response ([2]; subject 1002, Intrahepatic, 200 mg weekly): Progressive disease
Overall Survival ([2]; subject 1002, Intrahepatic): 3.1
Progression-Free Survival ([2]; subject 1002, Intrahepatic): 0.5
Best response ([2]; subject 1003, Intrahepatic, 200 mg weekly): Progressive disease
Overall Survival ([2]; subject 1003, Intrahepatic): 3.8
Progression-Free Survival ([2]; subject 1003, Intrahepatic): 1.2
Best response ([2]; subject 1004, Intrahepatic, 200 mg weekly): Progressive disease
Overall Survival ([2]; subject 1004, Intrahepatic): 3.1
Progression-Free Survival ([2]; subject 1004, Intrahepatic): 1.6
Best response ([2]; subject 1005, Intrahepatic, 200 mg weekly): Stable disease
Overall Survival ([2]; subject 1005, Intrahepatic): 20.2
Progression-Free Survival ([2]; subject 1005, Intrahepatic): 3.4
Best response ([2]; subject 1007, Extrahepatic, 200 mg weekly): Progressive disease
Overall Survival ([2]; subject 1007, Extrahepatic): 6.7
Progression-Free Survival ([2]; subject 1007, Extrahepatic): 6.6
Best response ([2]; subject 2006, Intrahepatic, 200 mg weekly): Progressive disease
Overall Survival ([2]; subject 2006, Intrahepatic): 2.8
Progression-Free Survival ([2]; subject 2006, Intrahepatic): 1.2
Best response ([2]; subject 2008, Extrahepatic, 200 mg weekly): Stable disease
Overall Survival ([2]; subject 2008, Extrahepatic): 6.1
Progression-Free Survival ([2]; subject 2008, Extrahepatic): 5.6
IC50 (CYP2C9): > 35000 nM
IC50 (human Akt (Akt-1)): 8 nM
